Experimental data as given in publication PMC5362750, “Discovery of Potent, Selective, and Orally Bioavailable Small-Molecule Modulators of the Mediator Complex-Associated Kinases CDK8 and CDK19” (Journal of Medicinal Chemistry, 2016).

Experiments:
AT2 (h) = biological target: T1, AT2 (h) (Homo sapiens, UniProt P50052); test: CEREP binding assay; settings: agonist radioligand, read-out: % Inhibition of Control Specific Binding
T1 construct: purchased Millipore (KinaseProfiler) kinase panel

motilin (h) = motilin (h) (Homo sapiens, UniProt O43193); test: CEREP binding assay; settings: agonist radioligand, read-out: % Inhibition of Control Specific Binding
motilin (h), sequence (O43193 whole entry): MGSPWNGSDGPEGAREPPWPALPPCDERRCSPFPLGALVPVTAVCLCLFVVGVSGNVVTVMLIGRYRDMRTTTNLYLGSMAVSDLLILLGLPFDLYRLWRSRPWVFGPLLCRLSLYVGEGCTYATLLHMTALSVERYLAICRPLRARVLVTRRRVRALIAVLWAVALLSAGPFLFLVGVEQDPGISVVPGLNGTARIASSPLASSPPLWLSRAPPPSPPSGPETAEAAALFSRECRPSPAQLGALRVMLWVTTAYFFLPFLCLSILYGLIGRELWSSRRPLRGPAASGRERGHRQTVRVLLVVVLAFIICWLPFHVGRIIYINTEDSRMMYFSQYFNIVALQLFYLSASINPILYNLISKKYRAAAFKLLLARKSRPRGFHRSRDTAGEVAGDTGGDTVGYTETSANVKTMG

sst1 (h) = sst1 (h) (Homo sapiens, UniProt P30872); test: CEREP binding assay; settings: agonist radioligand, read-out: % Inhibition of Control Specific Binding
EPHA2 = EPHA2 (Homo sapiens, UniProt P29317); test: Kinase panel (Millipore); format: biochemical; settings: 1 µM, ATP at Km
CKIT = biological target: T2, CKIT (Homo sapiens, UniProt P10721); test: Kinase panel (Millipore); format: biochemical; settings: 1 µM, ATP at Km
T2 construct: purchased Millipore (KinaseProfiler) kinase panel
T2 sequence (P10721 26-976): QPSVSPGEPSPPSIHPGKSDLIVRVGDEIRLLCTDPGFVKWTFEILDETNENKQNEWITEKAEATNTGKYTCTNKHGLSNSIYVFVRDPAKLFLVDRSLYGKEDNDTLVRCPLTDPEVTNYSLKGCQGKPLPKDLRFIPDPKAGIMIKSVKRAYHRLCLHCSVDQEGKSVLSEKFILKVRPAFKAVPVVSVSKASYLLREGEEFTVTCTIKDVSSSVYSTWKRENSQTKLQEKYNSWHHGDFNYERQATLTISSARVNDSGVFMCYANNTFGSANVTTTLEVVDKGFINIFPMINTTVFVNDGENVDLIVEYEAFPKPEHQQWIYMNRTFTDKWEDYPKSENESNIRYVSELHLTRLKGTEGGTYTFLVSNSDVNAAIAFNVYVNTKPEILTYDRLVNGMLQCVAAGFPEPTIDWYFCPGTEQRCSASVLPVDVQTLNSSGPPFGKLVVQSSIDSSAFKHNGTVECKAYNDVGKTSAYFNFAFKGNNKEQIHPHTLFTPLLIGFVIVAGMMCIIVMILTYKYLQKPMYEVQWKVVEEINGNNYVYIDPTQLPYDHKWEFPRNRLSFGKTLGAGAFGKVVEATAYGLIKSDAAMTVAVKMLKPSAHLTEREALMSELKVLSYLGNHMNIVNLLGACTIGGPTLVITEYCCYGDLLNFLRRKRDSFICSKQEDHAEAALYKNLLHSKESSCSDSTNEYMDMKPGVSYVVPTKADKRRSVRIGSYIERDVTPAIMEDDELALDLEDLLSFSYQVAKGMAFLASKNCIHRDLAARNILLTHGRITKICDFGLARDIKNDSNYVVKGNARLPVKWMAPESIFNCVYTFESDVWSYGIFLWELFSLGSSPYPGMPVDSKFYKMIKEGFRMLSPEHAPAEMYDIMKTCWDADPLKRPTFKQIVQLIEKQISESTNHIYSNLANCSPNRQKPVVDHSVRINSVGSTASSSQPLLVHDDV

EPHA5 = biological target: T3, EPHA5 (Homo sapiens, UniProt P54756); test: Kinase panel (Millipore); format: biochemical; settings: 1 µM, ATP at Km
T3 construct: purchased Millipore (KinaseProfiler) kinase panel

EPHB3 = biological target: T4, EPHB3 (Homo sapiens, UniProt P54753); test: Kinase panel (Millipore); format: biochemical; settings: 1 µM, ATP at Km
T4 construct: purchased Millipore (KinaseProfiler) kinase panel

FLT3 = biological target: T5, FLT3 (Homo sapiens, UniProt P36888); test: Kinase panel (Millipore); format: biochemical; settings: 1 µM, ATP at Km
T5 construct: purchased Millipore (KinaseProfiler) kinase panel
T5 sequence (P36888 27-993): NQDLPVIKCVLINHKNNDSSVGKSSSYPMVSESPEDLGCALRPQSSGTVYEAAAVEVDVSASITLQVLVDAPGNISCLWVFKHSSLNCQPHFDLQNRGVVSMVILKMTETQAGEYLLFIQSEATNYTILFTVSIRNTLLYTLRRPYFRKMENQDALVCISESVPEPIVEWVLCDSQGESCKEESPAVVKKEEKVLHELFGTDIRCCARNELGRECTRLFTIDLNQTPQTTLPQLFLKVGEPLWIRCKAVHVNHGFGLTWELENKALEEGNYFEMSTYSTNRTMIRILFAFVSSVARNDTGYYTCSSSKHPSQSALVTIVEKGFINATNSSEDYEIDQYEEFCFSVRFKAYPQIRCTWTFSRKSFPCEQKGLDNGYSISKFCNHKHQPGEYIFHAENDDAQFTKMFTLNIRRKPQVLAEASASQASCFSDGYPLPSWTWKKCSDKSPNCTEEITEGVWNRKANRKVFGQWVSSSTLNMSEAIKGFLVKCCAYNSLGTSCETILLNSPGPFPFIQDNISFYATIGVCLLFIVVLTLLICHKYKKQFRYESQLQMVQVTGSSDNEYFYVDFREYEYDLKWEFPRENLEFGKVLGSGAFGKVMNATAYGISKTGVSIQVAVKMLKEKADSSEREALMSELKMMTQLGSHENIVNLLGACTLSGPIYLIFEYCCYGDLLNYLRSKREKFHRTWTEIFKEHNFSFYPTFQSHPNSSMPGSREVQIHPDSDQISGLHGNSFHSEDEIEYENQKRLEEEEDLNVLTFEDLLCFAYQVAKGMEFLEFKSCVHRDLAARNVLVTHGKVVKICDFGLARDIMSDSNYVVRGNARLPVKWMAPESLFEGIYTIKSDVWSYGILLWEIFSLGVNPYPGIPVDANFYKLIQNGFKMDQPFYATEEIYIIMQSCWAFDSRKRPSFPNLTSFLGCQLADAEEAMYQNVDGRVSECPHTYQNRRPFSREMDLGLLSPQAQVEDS

MLK1 = biological target: T6, MLK1 (Homo sapiens, UniProt P80192); test: Kinase panel (Millipore); format: biochemical; settings: 1 µM, ATP at Km
T6 construct: purchased Millipore (KinaseProfiler) kinase panel
T6 sequence (P80192 whole entry): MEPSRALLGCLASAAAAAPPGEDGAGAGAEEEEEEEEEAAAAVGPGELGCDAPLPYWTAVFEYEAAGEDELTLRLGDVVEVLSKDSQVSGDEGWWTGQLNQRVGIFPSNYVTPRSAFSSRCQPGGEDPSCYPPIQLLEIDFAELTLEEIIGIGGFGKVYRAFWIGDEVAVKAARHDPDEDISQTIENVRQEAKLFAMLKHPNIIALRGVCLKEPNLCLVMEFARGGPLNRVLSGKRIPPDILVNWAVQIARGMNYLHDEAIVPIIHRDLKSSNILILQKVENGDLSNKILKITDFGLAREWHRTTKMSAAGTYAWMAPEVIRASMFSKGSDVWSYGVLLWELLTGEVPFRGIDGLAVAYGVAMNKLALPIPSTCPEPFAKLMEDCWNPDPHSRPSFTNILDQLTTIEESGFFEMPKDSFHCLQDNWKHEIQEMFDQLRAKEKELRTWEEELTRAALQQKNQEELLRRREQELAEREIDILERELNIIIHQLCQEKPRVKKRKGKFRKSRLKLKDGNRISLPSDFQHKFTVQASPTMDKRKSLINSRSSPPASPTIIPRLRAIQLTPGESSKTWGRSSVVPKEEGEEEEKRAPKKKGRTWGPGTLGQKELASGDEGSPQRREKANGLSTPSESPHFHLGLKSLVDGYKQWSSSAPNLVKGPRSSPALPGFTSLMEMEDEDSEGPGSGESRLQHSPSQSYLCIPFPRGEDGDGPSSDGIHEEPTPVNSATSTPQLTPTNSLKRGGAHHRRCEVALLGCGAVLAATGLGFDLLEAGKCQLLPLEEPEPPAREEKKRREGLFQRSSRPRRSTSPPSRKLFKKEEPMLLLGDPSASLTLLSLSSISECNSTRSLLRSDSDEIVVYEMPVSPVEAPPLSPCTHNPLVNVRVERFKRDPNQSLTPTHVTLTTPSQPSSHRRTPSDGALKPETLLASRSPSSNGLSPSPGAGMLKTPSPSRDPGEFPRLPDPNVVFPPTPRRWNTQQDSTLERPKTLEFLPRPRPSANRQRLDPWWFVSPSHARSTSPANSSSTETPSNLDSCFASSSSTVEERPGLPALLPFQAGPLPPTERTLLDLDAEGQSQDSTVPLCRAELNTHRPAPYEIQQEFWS

MRCKALPHA = biological target: T7, MRCKALPHA (Homo sapiens, UniProt Q5VT25); test: Kinase panel (Millipore); format: biochemical; settings: 1 µM, ATP at Km
T7 construct: purchased Millipore (KinaseProfiler) kinase panel

CSK = CSK (Homo sapiens, UniProt P41240); test: Kinase panel (Millipore); format: biochemical; settings: 1 µM, ATP at Km
DAPK1 = biological target: T8, DAPK1 (Homo sapiens, UniProt P53355); test: Kinase panel (Millipore); format: biochemical; settings: 1 µM, ATP at Km
T8 construct: purchased Millipore (KinaseProfiler) kinase panel

IRAK1 = IRAK1 (Homo sapiens, UniProt P51617); test: Kinase panel (Millipore); format: biochemical; settings: 1 µM, ATP at Km
NEK11 = biological target: T9, NEK11 (Homo sapiens, UniProt Q8NG66); test: Kinase panel (Millipore); format: biochemical; settings: 1 µM, ATP at Km
T9 construct: purchased Millipore (KinaseProfiler) kinase panel

DRAK1 = biological target: T10, DRAK1 (Homo sapiens, UniProt Q9UEE5); test: Kinase panel (Millipore); format: biochemical; settings: 1 µM, ATP at Km
T10 construct: purchased Millipore (KinaseProfiler) kinase panel

PAK2 = biological target: T11, PAK2 (Homo sapiens, UniProt Q13177); test: Kinase panel (Millipore); format: biochemical; settings: 1 µM, ATP at Km
T11 construct: purchased Millipore (KinaseProfiler) kinase panel

JNK2ALPHA2 = JNK2ALPHA2 (Homo sapiens, UniProt P45984); test: Kinase panel (Millipore); format: biochemical; settings: 1 µM, ATP at Km
RSK3 = RSK3 (Homo sapiens, UniProt Q15349); test: Kinase panel (Millipore); format: biochemical; settings: 1 µM, ATP at Km
RSK3, sequence (Q15349 whole entry): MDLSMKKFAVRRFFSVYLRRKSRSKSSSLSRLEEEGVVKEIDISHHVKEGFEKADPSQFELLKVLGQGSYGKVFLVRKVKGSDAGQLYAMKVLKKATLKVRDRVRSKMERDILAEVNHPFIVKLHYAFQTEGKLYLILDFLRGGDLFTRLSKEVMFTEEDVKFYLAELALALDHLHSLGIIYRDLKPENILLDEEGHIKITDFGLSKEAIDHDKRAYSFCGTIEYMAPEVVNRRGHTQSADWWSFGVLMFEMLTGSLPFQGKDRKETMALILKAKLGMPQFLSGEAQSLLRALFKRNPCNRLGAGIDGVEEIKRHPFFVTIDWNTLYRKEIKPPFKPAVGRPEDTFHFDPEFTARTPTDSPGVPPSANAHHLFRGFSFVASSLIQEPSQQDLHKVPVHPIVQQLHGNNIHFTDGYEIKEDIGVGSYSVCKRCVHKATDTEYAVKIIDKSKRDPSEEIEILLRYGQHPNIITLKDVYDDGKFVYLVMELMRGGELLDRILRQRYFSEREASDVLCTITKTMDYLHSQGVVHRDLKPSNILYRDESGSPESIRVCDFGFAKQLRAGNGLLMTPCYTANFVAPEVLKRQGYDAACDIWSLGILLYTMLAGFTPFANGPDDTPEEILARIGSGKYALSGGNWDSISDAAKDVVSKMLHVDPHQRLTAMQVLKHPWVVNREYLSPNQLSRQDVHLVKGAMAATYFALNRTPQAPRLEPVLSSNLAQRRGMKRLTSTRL

PDGFRBETA = biological target: T12, PDGFRBETA (Homo sapiens, UniProt P09619); test: Kinase panel (Millipore); format: biochemical; settings: 1 µM, ATP at Km
T12 construct: purchased Millipore (KinaseProfiler) kinase panel

RSK4 = biological target: T13, RSK4 (Homo sapiens, UniProt Q9UK32); test: Kinase panel (Millipore); format: biochemical; settings: 1 µM, ATP at Km
T13 construct: purchased Millipore (KinaseProfiler) kinase panel

PIM-1 = PIM-1 (Homo sapiens, UniProt P11309); test: Kinase panel (Millipore); format: biochemical; settings: 1 µM, ATP at Km
PKA = PKA (Homo sapiens, UniProt P17612); test: Kinase panel (Millipore); format: biochemical; settings: 1 µM, ATP at Km
SNK = biological target: T14, SNK (Homo sapiens, UniProt Q9NYY3); test: Kinase panel (Millipore); format: biochemical; settings: 1 µM, ATP at Km
T14 construct: purchased Millipore (KinaseProfiler) kinase panel

SRC = SRC (Homo sapiens, UniProt P12931); test: Kinase panel (Millipore); format: biochemical; settings: 1 µM, ATP at Km
SRPK1 = biological target: T15, SRPK1 (Homo sapiens, UniProt Q96SB4); test: Kinase panel (Millipore); format: biochemical; settings: 1 µM, ATP at Km
T15 construct: purchased Millipore (KinaseProfiler) kinase panel

PKCALPHA = PKCALPHA (Homo sapiens, UniProt P17252); test: Kinase panel (Millipore); format: biochemical; settings: 1 µM, ATP at Km
PKCDELTA = PKCDELTA (Homo sapiens, UniProt Q05655); test: Kinase panel (Millipore); format: biochemical; settings: 1 µM, ATP at Km
SRC(1-530) = SRC(1-530) (Homo sapiens, UniProt P12931); test: Kinase panel (Millipore); format: biochemical; settings: 1 µM, ATP at Km
PKCIOTA = biological target: T16, PKCIOTA (Homo sapiens, UniProt P41743); test: Kinase panel (Millipore); format: biochemical; settings: 1 µM, ATP at Km
T16 construct: purchased Millipore (KinaseProfiler) kinase panel

TSSK2 = biological target: T17, TSSK2 (Homo sapiens, UniProt Q96PF2); test: Kinase panel (Millipore); format: biochemical; settings: 1 µM, ATP at Km
T17 construct: purchased Millipore (KinaseProfiler) kinase panel
T17 sequence (Q96PF2 whole entry): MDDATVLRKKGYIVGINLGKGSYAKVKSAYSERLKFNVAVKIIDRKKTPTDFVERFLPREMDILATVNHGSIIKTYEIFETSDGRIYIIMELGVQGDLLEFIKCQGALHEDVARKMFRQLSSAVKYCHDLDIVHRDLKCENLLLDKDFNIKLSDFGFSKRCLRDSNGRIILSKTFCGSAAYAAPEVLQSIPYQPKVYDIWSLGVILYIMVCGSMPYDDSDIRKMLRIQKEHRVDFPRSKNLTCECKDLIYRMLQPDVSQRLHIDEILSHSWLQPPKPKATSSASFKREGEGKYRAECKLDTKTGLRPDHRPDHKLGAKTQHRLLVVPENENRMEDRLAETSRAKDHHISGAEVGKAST

CK1GAMMA3 = CK1GAMMA3 (Homo sapiens, UniProt Q9Y6M4); test: Kinase panel (Millipore); format: biochemical; settings: 1 µM, ATP at Km
PTK5 = biological target: T18, PTK5 (Homo sapiens, UniProt P42685); test: Kinase panel (Millipore); format: biochemical; settings: 1 µM, ATP at Km
T18 construct: purchased Millipore (KinaseProfiler) kinase panel
T18 sequence (P42685 whole entry): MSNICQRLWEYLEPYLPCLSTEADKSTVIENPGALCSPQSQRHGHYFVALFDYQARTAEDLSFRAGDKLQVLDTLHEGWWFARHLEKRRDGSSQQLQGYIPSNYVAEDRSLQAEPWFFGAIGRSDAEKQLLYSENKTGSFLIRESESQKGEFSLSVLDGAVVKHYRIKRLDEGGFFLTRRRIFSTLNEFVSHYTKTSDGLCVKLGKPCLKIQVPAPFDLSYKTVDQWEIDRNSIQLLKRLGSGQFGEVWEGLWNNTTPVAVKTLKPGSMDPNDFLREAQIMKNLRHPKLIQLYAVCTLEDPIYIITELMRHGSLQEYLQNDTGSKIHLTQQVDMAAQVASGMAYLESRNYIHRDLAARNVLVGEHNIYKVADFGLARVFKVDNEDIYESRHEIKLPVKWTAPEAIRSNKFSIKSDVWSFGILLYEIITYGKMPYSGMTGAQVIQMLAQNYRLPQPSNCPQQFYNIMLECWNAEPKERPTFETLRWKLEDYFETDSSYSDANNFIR

DCAMKL2 = biological target: T19, DCAMKL2 (Homo sapiens, UniProt Q8N568); test: Kinase panel (Millipore); format: biochemical; settings: 1 µM, ATP at Km
T19 construct: purchased Millipore (KinaseProfiler) kinase panel

[1] = test system: APC-mutant SW620 human colorectal carcinoma xenograft
[2] = test system: STAT1^SER727 phosphorylation; settings: 30 mg/kg q.d. oral
kainate = settings: 10 µM, agonist radioligand
TNF-alpha (h) = settings: 10 µM, agonist radioligand
EGFR(L858R) = EGFR(L858R) (Homo sapiens, UniProt P00533, L858R); settings: 1 µM, ATP at Km
STK33 = STK33 (Homo sapiens, UniProt Q9BYT3); settings: 1 µM, ATP at Km
ABL (M351T) = ABL (M351T) (Homo sapiens, UniProt P00519, M351T); settings: 1 µM, ATP at Km
cMET (Y1248D) = cMET (Y1248D) (Homo sapiens, UniProt P08581, Y1230D); settings: 1 µM, ATP at Km
FMS(Y969C) = FMS(Y969C) (Homo sapiens, UniProt P07333, Y969C); settings: 1 µM, ATP at Km
5-HT2A (h) = 5-HT2A (h) (Homo sapiens, UniProt P28223); test: biochemical; settings: read-out: % Inhibition of Control Specific Binding

Cn1ncc2cc(-c3cnc(N)c(Cl)c3N3CCC4(CCNC4=O)CC3)ccc21 [Compound 109, 8-(2-Amino-3-chloro-5-(1-methyl-1H-indazol-5-yl)pyridin-4-yl)-2,8-diazaspiro[4.5]decan-1-one]
inhibition at 10 µM (AT2 (h)): 6% | inhibition at 10 µM (motilin (h)): 12% | inhibition at 10 µM (sst1 (h)): -4% | % effect (EPHA2): 5% | % effect (CKIT): -5% | % effect (EPHA5): -9% | % effect (EPHB3): 5% | % effect (FLT3): 7% | % effect (MLK1): -10% | % effect (MRCKALPHA): -3% | % effect (CSK): 8% | % effect (DAPK1): -8% | % effect (IRAK1): 15% | % effect (NEK11): 12% | % effect (DRAK1): 1% | % effect (PAK2): -10% | % effect (JNK2ALPHA2): -5% | % effect (RSK3): -15% | % effect (PDGFRBETA): -9% | % effect (RSK4): -6% | % effect (PIM-1): 2% | % effect (PKA): 25% | % effect (SNK): 11% | % effect (SRC): 7% | % effect (SRPK1): -8% | % effect (PKCALPHA): 5% | % effect (PKCDELTA): 6% | % effect (SRC(1-530)): 0% | % effect (PKCIOTA): -5% | % effect (TSSK2): 9% | % effect (CK1GAMMA3): -7% | % effect (PTK5): -12% | % effect (DCAMKL2): -3% | T/C (final tumor weights) ([1]; 30 mg/kg q.d. oral, P = 0.0241): 45.8 | tolerability ([1]; 30 mg/kg q.d. schedule): well tolerated with no significant body weight loss | duration of reduced STAT1 SER727 phosphorylation after the last dose [2]: more than 6 h | % Inhibition of Control Specific Binding (kainate): 9% | % Inhibition of Control Specific Binding (TNF-alpha (h)): -8% | % effect (EGFR(L858R)): -4% | % effect (STK33): 0% | % effect (ABL (M351T)): -11% | % effect (cMET (Y1248D)): -1% | % effect (FMS(Y969C)): -43% | inhibition at 10 µM (5-HT2A (h)): -10%
